Assay results taken from patent publication US4416826A, “Peresters and use thereof” (priority 1980, dated 1983).
“Also recorded” adds a separate entry of the source.

Legend:
[1] = literature discussion; cited from earlier work
[2] = Photodecomposition kinetics and quantum yields at 366 nm (benzophenone-benzhydrol actinometry); format: physicochemical
Method: Kinetic studies are carried out in degassed, sealed tubes by irradiating them with 366 nm light obtained from a Hanovia medium-pressure mercury lamp by combining the Corning Filters 0-52 and 7-60. The decompositions of the […] followed by the carbonyl IR absorption adjacent to the peroxide group (O=COO--) (1770 cm^-1). Benzophenone-benzhydrol redox actinometry are used throughout the study. In particular, a solution of […] (2 mL) in the appropriate solvent is placed in Pyrex tubes (12-mm diameter), degassed, and sealed under vacuum. Three cycles of freeze-thaw removes dissolved oxygen. The tubes are placed in a merry-go-round around a water-cooled light source, removed at different predetermined intervals, and kept frozen in liquid nitrogen in the dark until analysis is done. The estimation of […] done by quantitative IR, monitoring the carbonyl peak at 1770 cm^-1. […] Absorbance is measured with a 0.1 mm NaCl cell against solvent reference. With every run, two tubes containing actinometric solutions (benzophenone (0.1 M) and benzhydrol (0.05 M) in benzene are irradiated.

[3] = Stern-Volmer triplet quenching with naphthalene; format: physicochemical; details: C6 H6
From the text: All the peresters give linear Stern-Volmer plots when naphthalene is used as triplet quencher.

[4] = Thermal stability / thermal decomposition of peresters in the dark; format: physicochemical
Triplet energy = format: physicochemical
[5] = Polymerization of methyl methacrylate; details: initiator 5 × 10^-2 M, [MMA] = 3.1 M, 25° C., benzene
Method: Commercial methyl methacrylate monomer is washed three times with 2% NaOH solution to remove stabilizer. It is then washed with distilled water three times, dried with molecular sieves, and distilled under vacuum before use. Polymerization solutions are prepared in cylindrical tubes which are degassed and sealed. The amount of polymer formed is determined by precipitating the polymer with an excess of methanol, washing with methanol, and filtering through fine sintered crucibles (previously weighed) followed by drying in a vacuum oven. The irradiation condition is the same as that in the decomposition rate example hereinabove.

[6] = Photolysis of peresters and analysis of photoproducts; format: physicochemical; details: methanol compared with cyclohexane or with other peresters
Method: The amount of perester used is in the range of 300-500 mg. The solutions are placed in Pyrex tubes, flushed with nitrogen for 10 min., and sealed with a rubber cap.
After the irradiation, the yield of CO2 is measured by applying N2 pressure and trapping the CO2 with a Ba(OH)2 solution. The photolyzed solutions are evaporated (in the case of perester Ia treatment with excess diazomethane gives the best separation procedure) and again evaporated. Chromatography over 2 mm silica gel plates (E. Merck) with dichloromethane as the developing solvent separates the products. Extraction of the silica gel is done with ether. The identity of each sample is confirmed by GLC or high-pressure LC by comparison with authentic samples or by melting points of the solids.
This is shown by comparison with an authentic sample and combination of spectroscopic techniques. […] The same product is formed when 4-benzoylbenzoic acid is irradiated for 2 hours in CH3 OH in 26% yield. The structure of this secondary photoproduct is shown by independent synthesis (reduction of methyl 4-benzoylbenzoate by NaBH4). Among other secondary photoproducts found in small amounts is a mixture of pinacols. These are confirmed by synthesis of a similar pinacol mixture upon irradiation of methyl 4-benzoylbenzoate in isopropyl alcohol. […]

[7] = Polymerization of unsaturated polyester films under UV lamp (wipe resistance, pendulum hardness); details: for Passes necessary to achieve resistance to wiping: 0.2 parts in 10 parts resin, 100μ film, 17 m/min
Method: This mixture is stirred until a solution is obtained, which is then drawn out on glass plates with a film drawer (100μ). […] The samples are passed, on a conveyer belt, under the UV-lamp at a rate of 17 m/min. (20 volts).
In addition, the hardness of the film is determined using a pendulum apparatus according to Konig.

[8] = 110° C., chlorobenzene, dark, initial concn Ia 5.01, Ib 5.15, Ic 5.19 × 10^-2 M

Compound: C=Cc1ccccc1 [Styrene]
- triplet energy [1]: 62 kcal/mol

Compound: Cc1cc(C)c(C(=O)c2ccc(C(=O)OOC(C)(C)C)cc2)c(C)c1 [Ib, Tert-butyl-4-(2',4',6'-trimethylbenzoyl)perbenzoate]
- apparent first-order photodecomposition rate constant kd × 10^4 ([2]; C6 H6, 25° C., 366 nm, I = 6.56 × 10^17 quanta/min, 5.03-6.06 × 10^-2 M, given as kd × 10^4): 1.34 s^-1
- quantum yield of decomposition (φ of dec) ([2]; C6 H6, 366 nm, perester 5.03-6.06 × 10^-2 M): 0.80
- quantum yield of decomposition (φ of dec) ([2]; methanol, TBP 5.08 × 10^-2 M, Ia 5.38, Ib 6.15 × 10^-2 M): 0.62
- quantum yield of decomposition (φ of dec) ([2]; methanol, no TBP, Ia 5.38, Ib 6.15, Ic 5.10 × 10^-2 M): 1.30
- quenching constant kq τ [3]: 15
- thermal 1st order dec rate × 10^5 [4, 8]: 1.80 M × 10^5 s^-1
- thermal half-life t1/2 [4, 8]: 10.7 h
- triplet energy ET (Triplet energy): 67.4 kcal/mol
- Rate of Polymerization (Rp) of MMA, Rp × 10^5 [5]: 8.31 mL^-1 s^-1
- rate of photodecomposition, qualitative [6]: the effect of methanol is to slow the rate of decomposition; also recorded: apparently slower rate of decomposition in methanol than either that of Ia or Ic

Compound: CC(C)(C)OOC(=O)c1ccc(C(=O)c2ccccc2)cc1 [drawing 15]
- Passes necessary to achieve resistance to wiping [7]: 12
- Pendulum hardness according to Konig, H ([7]; after 12 passes): 24
- Pendulum hardness according to Konig, H ([7]; after 14 passes): 38

Compound: COc1ccc(C(=O)c2ccc(C(=O)OOC(C)(C)C)cc2)cc1
- Passes necessary to achieve resistance to wiping [7]: 14
- Pendulum hardness according to Konig, H ([7]; after 14 passes): 23
- Pendulum hardness according to Konig, H ([7]; after 16 passes): 26

Compound: O=C(OOC(=O)c1ccccc1)c1ccccc1 [Bz2 O2, benzoyl peroxide, reference compound]
- photodecomposition behaviour, in words ([2]; 366 nm radiation, room temperature): photostable
- quantum yield of sensitized decomposition (φ of dec) ([2]; C6 H6, 4.67 × 10^-2 M, benzophenone 5.89 × 10^-2 M): 0.32
- sensitized photodecomposition rate constant kd × 10^4 ([2]; C6 H6, 25° C., 4.67 × 10^-2 M, benzophenone 5.89 × 10^-2 M, given as kd × 10^4): 0.64 s^-1
- quantum yield of sensitized decomposition (φ of dec) ([2]; CCl4, 3.50 × 10^-2 M, benzophenone 3.75 × 10^-2 M): 0.17
- thermal decomposition, in words ([4]; 80° C. in benzene): a decomposition rate comparable to the literature value
- Rate of Polymerization (Rp) of MMA, Rp × 10^5 ([5]; benzophenone 5.5 × 10^-2 M): 2.58 mL^-1 s^-1

Compound: Cc1ccc(C(=O)c2ccc(C(=O)OOC(C)(C)C)cc2)cc1
- Passes necessary to achieve resistance to wiping [7]: 13
- Pendulum hardness according to Konig, H ([7]; after 13 passes): 23
- Pendulum hardness according to Konig, H ([7]; after 15 passes): 51

Compound: O=C(c1ccccc1)c1ccccc1 [Benzophenone, reference compound]
- triplet energy [1]: ~69 kcal/mol
- Passes necessary to achieve resistance to wiping [7]: > 20
- Pendulum hardness according to Konig, H ([7]; number of passes for hardness not given): wet
